The text below walks through data of patent US6420381B1, “Naphthyridine derivatives” (Sumitomo Pharmaceuticals Company, Limited, priority 1998, dated 2002).

Structures can show the parent of a compound that is named as a salt.

Data set [1] concerns ACAT. The experiment in a line: Assay of ACAT inhibitory activity in a specimen prepared from rabbit liver. The class given is biochemical, New Zealand white rabbit. To be noted: enzyme specimen from liver of cholesterol-fed rabbit, [1-14C]oleoyl-CoA. The procedure: 1. Assay of ACAT inhibitory activity in a specimen prepared from rabbit liver:
An enzyme specimen ACAT was prepared according to the method disclosed in the literature: J. Lipid. Research, 30, 681-690, 1989, from the liver of a New Zealand white rabbit, which had been fed with 1% cholesterol feed for one month. The ACAT activity was determined according to the method disclosed in the literature: J. Lipid Research, 24, 1127-1134, 1983, i.e., using radioactive [1-^14C]oleoyl-CoA and endogenous cholesterol contained in the liver microsome, and calculated from the radioactivity of the labeled cholesterol oleate.

Data set [2] concerns the target T1, ACAT (Rattus norvegicus, UniProt O70536).
T1 construct: The rat peritoneal-derived macrophage was prepared; endogenous in cells; host or cells: rat peritoneal macrophages (primary)
T1 sequence (O70536 1-545): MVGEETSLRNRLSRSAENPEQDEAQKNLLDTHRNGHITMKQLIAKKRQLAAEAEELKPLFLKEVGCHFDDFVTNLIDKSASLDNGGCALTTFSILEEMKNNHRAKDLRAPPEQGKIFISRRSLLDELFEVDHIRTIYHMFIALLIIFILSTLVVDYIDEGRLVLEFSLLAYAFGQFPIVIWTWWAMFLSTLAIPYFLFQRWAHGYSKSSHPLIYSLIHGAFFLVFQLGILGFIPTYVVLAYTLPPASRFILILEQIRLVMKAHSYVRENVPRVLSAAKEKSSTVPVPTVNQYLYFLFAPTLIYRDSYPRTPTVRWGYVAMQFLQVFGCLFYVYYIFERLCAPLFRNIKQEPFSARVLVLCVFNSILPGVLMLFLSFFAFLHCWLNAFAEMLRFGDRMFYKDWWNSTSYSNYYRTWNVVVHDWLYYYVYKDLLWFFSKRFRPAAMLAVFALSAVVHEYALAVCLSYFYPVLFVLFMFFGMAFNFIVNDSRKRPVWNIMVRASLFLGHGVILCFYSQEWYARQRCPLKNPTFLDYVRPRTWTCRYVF
The experiment in a line: Assay of ACAT inhibitory activity in a macrophage derived from rat peritoneal. To be noted: [9,10-3H]oleic acid. The class given is cell-based. The procedure: 2. Assay of ACAT inhibitory activity in a macrophage derived from rat peritoneal:
The rat peritoneal-derived macrophage was prepared according to the method disclosed in the literature: Biochimica et Biophysica Acta, 1126, 73-80, 1992. The ACAT activity was determined by a modified method of the method disclosed in the above literature: Biochimica et Biophysica Acta, 1126, 73-80, 1992, i.e., using radioactive [9,10-^3H]oleic acid and exogenous cholesterol contained in the liposome which was re-constituted according to the method disclosed in the literature: Biochimica et Biophysica Acta, 1213, 127-134, 1994, and calculated from the radioactivity of the labeled cholesterolyl oleate.

What is called melting point is the temperature of the solid-liquid transition. `CCCCn1c(=O)c(NC(=O)Nc2cc(CN(C)C)ccc2C(C)(C)C)c(-c2cccc(OC)c2)c2cccnc21` (as salt: hydrochloride) [Example 30] had a melting point of 174 to 175 °C.
Same read-out and setting: to `CCCCn1c(=O)c(NC(=O)Nc2cc(CNC)ccc2C(C)(C)C)c(-c2cccc(OC)c2)c2cccnc21` (as salt: hydrochloride) [Example 31] belongs 163 to 165 °C; to `CCCCn1c(=O)c(NC(=O)Nc2cc(CNCC)ccc2C(C)(C)C)c(-c2cccc(OC)c2)c2cccnc21` (as salt: hydrochloride) [Example 32], 158 to 161 °C.
For `CCCCn1c(=O)c(NC(=O)Nc2cc(CN3CCOCC3)ccc2C(C)(C)C)c(-c2cccc(OC)c2)c2cccnc21` [Example 1, N-[1-butyl-4-(3-methoxyphenyl)-1,2-dihydro-2-oxo-1,8-naphthyridin-3yl]-N′-[2-tert-butyl-5-(morpholinomethyl)phenyl]urea], the “ACAT inhibitory rate (%) 10^−6 M” value in data set [1] was 98%. Moreover, in data set [2] (10^−6 M, read-out: ACAT inhibitory rate (%) 10^−6 M), the inhibition at 1 µM came to 97%.
As to “N-[1-butyl-4-(3-methoxyphenyl)-1,2-dihydro-2-oxo-1,8-naphthyridin-3-yl]-N′-[2-tert-butyl-5-(1-pyrazolylmethyl)phenyl]urea [Example 19]”, the “ACAT inhibitory rate (%) 10^−6 M” value in data set [1] is given as 99%; in data set [2], 73%.
